# Laboratory results as given in US20260224716A1, “PTH ANALOGS FOR THE TREATMENT OF HYPOPARATHYROIDISM” (priority 2020, published 2026).
# Where a SMILES comes first, the peptide text is derived from it. [ ]: non-standard residue; d: D form. The star is where a group is joined. NMeH = CN[C@@H](Cc1c[nH]cn1)C(=O)O; Isobutyryl(2-OH) = CC(C)(O)C(=O)*; Deg = CCC(N)(CC)C(=O)O; Aib = CC(C)(N)C(=O)O
# What was measured:
# [1] = Rate of model dipeptide cleavage from hexapeptide in PBS (HPLC, LC-MS); assay type: physicochemical; settings: for t1/2: cleavage of dipeptide A-B from model hexapeptide in PBS, 37° C., unit not given or result in words; for half-life at 1 mg/ml: buffer
# Protocol: The solution was incubated at 37° C.
# The flow rate was 1 ml/min.
# [2] = Cleavage half-life / conversion of PTH prodrugs in PBS pH 7.4, 37° C. by LC-MS; assay type: physicochemical; settings: PBS buffer; dipeptide cleavage from PTH prodrug, PBS pH 7.4, 37° C.; read-out: Half life (converted)
# Protocol: The resulting solution was incubated at 37° C. Aliquots were taken at designed time points and analyzed by LC-MS. […] Flow rate of 1 mL/min and a gradient of 10%-80% acetonitrile in water, with 0.1% trifluoroacetic acid over 10 min. […] The concentration of prodrug and drug were determined by their relative peak areas. The […] dissociation rate constant of the prodrug was determined by plotting the logarithm in the concentration of the prodrug at various time points.
# PTH1 receptor = target: T1, PTH1 receptor (Homo sapiens, UniProt Q03431); experiment: Luciferase-based reporter gene assay for cAMP detection (HEK293 cells); assay type: cell-based; settings: for potency at the PTH receptor: FIGS. 3A, 3B, luciferase reporter of cAMP production
# T1 construct: expressed in transfected cells; host or cells: HEK293
# T1 sequence (Q03431 27-593): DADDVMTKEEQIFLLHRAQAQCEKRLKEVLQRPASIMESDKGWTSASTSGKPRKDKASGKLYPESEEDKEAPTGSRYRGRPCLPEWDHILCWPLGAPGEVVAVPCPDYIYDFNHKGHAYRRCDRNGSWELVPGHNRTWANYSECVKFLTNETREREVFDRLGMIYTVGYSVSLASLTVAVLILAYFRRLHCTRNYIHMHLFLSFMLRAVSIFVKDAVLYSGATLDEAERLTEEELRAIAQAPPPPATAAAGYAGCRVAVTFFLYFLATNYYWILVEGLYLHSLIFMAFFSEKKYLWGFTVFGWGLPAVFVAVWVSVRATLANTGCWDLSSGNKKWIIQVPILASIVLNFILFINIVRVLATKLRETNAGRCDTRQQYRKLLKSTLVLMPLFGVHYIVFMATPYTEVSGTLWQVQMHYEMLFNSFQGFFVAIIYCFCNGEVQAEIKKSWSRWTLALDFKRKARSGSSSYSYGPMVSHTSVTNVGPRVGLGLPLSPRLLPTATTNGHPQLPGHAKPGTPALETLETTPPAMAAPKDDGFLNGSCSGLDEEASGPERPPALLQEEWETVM
# Protocol: At the end of the incubation, 50 μL of Steady-Lite Plus (PerkinElmer, Waltham, MA) were added to each well. The plate was shaken briefly, incubated four minutes and light output was measured on an EnSpire Alpha Multi-mode Plate Reader (PerkinElmer, Waltham, MA).
# serum calcium = experiment: Pharmacology in normal mice: serum calcium (Example 6); assay type: in vivo, C57Bl6/J mice; settings: FIG. 5C, 20 or 40 nmol/kg SC, 24 and 48 hours
# Protocol: Each group of mice was bled immediately before the injection and after 24 and 48 hours. Blood was centrifuges and serum was collected and stored at −20 C. Calcium concentrations were determined used commercially available assays following the manufacturer's instructions.
compound,measurement,setting,value
7 (SVSEIQLMHNLGKHLNSMERVEWLRKKLQDVH; listed as Homo sapiens) [compound 7],t1/2,[1],No cleavage
11 (XXSVSEIQLMHNLGKHLNSMERVEWLRKKLQDVHNF; SITE 1 MISC_FEATURE - Xaa at position 1 is acylated dLys; SITE 2 MISC_FEATURE - Xaa at position 2 is N-methyl Gly; listed as Homo sapiens) [compound 11],t1/2,[1],No cleavage
12 (SVSEIQLMHNLGKHLNSMERVEWLRKKLQDVHNFX; VARIANT 35 MISC_FEATURE - Xaa at position 35 is an acylated Lys; SITE 35 MISC_FEATURE - C-terminal carboxyl group replaced with an amide; listed as Homo sapiens) [compound 12],t1/2,[1],No cleavage
13 (XXSVSEIQLMHNLGKHLNSMERVEWLRKKLQDVHNFX; SITE 1 MISC_FEATURE - Xaa at position 1 is acylated dLys; SITE 2 MISC_FEATURE - Xaa at position 2 is N-methyl Gly; SITE 37 MISC_FEATURE - Xaa at position 37 is an acylated Lys; SITE 37 MISC_FEATURE - C-terminal carboxyl group replaced with an amide; listed as Homo sapiens) [compound 13],t1/2,[1],No cleavage
CC[C@H](C)[C@H](NC(=O)[C@H](CCC(=O)O)NC(=O)[C@H](CO)NC(=O)[C@@H](NC(=O)[C@H](CO)NC(=O)CN(C)C(=O)[C@H](N)CCCCNC(=O)CC[C@H](NC(=O)CCCCCCCCCCCCCCCCC(=O)O)C(=O)O)C(C)C)C(=O)N[C@@H](CCC(N)=O)C(=O)N[C@@H](CC(C)C)C(=O)N[C@@H](CCSC)C(=O)N[C@@H](Cc1c[nH]cn1)C(=O)N[C@@H](CC(N)=O)C(=O)N[C@@H](CC(C)C)C(=O)NCC(=O)N[C@@H](CCCCN)C(=O)N[C@@H](Cc1c[nH]cn1)C(=O)N[C@@H](CC(C)C)C(=O)N[C@@H](CC(N)=O)C(=O)N[C@@H](CO)C(=O)N[C@@H](CCSC)C(=O)N[C@@H](CCC(=O)O)C(=O)N[C@@H](CCCNC(=N)N)C(=O)N[C@H](C(=O)N[C@@H](CCC(=O)O)C(=O)N[C@@H](Cc1c[nH]c2ccccc12)C(=O)N[C@@H](CC(C)C)C(=O)N[C@@H](CCCNC(=N)N)C(=O)N[C@@H](CCCCN)C(=O)N[C@@H](CCCCN)C(=O)N[C@@H](CC(C)C)C(=O)N[C@@H](CCC(N)=O)C(=O)N[C@@H](CC(=O)O)C(=O)N[C@H](C(=O)N[C@@H](Cc1c[nH]cn1)C(=O)N[C@@H](CC(N)=O)C(=O)N[C@@H](Cc1ccccc1)C(=O)O)C(C)C)C(C)C [SEQ ID NO: 45],half-life,[2],3.75 days
same,potency at the PTH receptor,PTH1 receptor,decreases the potency
same,EC50,"PTH1 receptor; HEK293 cells, PTH1 receptor, cAMP-responsive luciferase, 5 hours, read-out: Potency EC50",45.5 nM
CC[C@H](C)[C@H](NC(=O)[C@H](CCC(=O)O)NC(=O)[C@H](CO)NC(=O)[C@@H](NC(=O)[C@H](CO)NC(=O)CN(C)C(=O)[C@H](N)CCCCNC(=O)CC[C@H](NC(=O)CCCCCCCCCCCCCCCCC(=O)O)C(=O)O)C(C)C)C(=O)N[C@@H](CCC(N)=O)C(=O)N[C@@H](CC(C)C)C(=O)N[C@@H](CCSC)C(=O)N[C@@H](Cc1c[nH]cn1)C(=O)N[C@@H](CC(N)=O)C(=O)N[C@@H](CC(C)C)C(=O)NCC(=O)N[C@@H](CCCCN)C(=O)N[C@@H](Cc1c[nH]cn1)C(=O)N[C@@H](CC(C)C)C(=O)N[C@@H](CC(N)=O)C(=O)N[C@@H](CO)C(=O)N[C@@H](CCSC)C(=O)N[C@@H](CCC(=O)O)C(=O)N[C@@H](CCCNC(=N)N)C(=O)N[C@H](C(=O)N[C@@H](CCC(=O)O)C(=O)N[C@@H](Cc1c[nH]c2ccccc12)C(=O)N[C@@H](CC(C)C)C(=O)N[C@@H](CCCNC(=N)N)C(=O)N[C@@H](CCCCN)C(=O)N[C@@H](CCCCN)C(=O)N[C@@H](CC(C)C)C(=O)N[C@@H](CCC(N)=O)C(=O)N[C@@H](CC(=O)O)C(=O)N[C@H](C(=O)N[C@@H](Cc1c[nH]cn1)C(=O)N[C@@H](CC(N)=O)C(=O)N[C@@H](Cc1ccccc1)C(=O)N[C@@H](CCCCNC(=O)CC[C@H](NC(=O)CCCCCCCCCCCCCCCCC(=O)O)C(=O)O)C(N)=O)C(C)C)C(C)C [SEQ ID NO: 58],half-life,[2],3.04 days
same,potency at the PTH receptor,PTH1 receptor,low potency
C[C@@H](O)[C@H](NC(=O)CNC(=O)[C@H](CCCNC(=N)N)NC(=O)[C@H](CO)NC(=O)[C@H](Cc1c[nH]cn1)NC(=O)[C@@H]1CCCN1C(=O)C(C)(C)N)C(=O)N[C@@H](Cc1ccccc1)C(N)=O [compound 14] (H-[Aib]PHSRGTF-NH2),half-life at 1 mg/ml,[1],1920 min
C[C@@H](O)[C@H](NC(=O)CNC(=O)[C@H](CCCNC(=N)N)NC(=O)[C@H](CO)NC(=O)[C@H](Cc1c[nH]cn1)NC(=O)[C@H]1CCCN1C(=O)C(C)(C)N)C(=O)N[C@@H](Cc1ccccc1)C(N)=O [compound 15] (H-[Aib][dP]HSRGTF-NH2),half-life at 1 mg/ml,[1],1200 min
C[C@@H](O)[C@H](NC(=O)CNC(=O)[C@H](CCCNC(=N)N)NC(=O)[C@H](CO)NC(=O)[C@@H](Cc1c[nH]cn1)NC(=O)[C@@H]1CCCN1C(=O)C(C)(C)N)C(=O)N[C@@H](Cc1ccccc1)C(N)=O [compound 16] (H-[Aib]P[dH]SRGTF-NH2),half-life at 1 mg/ml,[1],960 min
CCC(N)(CC)C(=O)N1CCC[C@H]1C(=O)N[C@@H](Cc1c[nH]cn1)C(=O)N[C@@H](CO)C(=O)N[C@@H](CCCNC(=N)N)C(=O)NCC(=O)N[C@H](C(=O)N[C@@H](Cc1ccccc1)C(N)=O)[C@@H](C)O [compound 20] (H-[Deg]PHSRGTF-NH2),half-life at 1 mg/ml,[1],2760 min
C[C@@H](O)[C@H](NC(=O)CNC(=O)[C@H](CCCNC(=N)N)NC(=O)[C@H](CO)NC(=O)[C@H](Cc1c[nH]cn1)NC(=O)[C@@H]1CCCN1C(=O)C(C)(C)O)C(=O)N[C@@H](Cc1ccccc1)C(N)=O [compound 21] ({Isobutyryl(2-OH)}-PHSRGTF-NH2),half-life at 1 mg/ml,[1],3660 min
C[C@H](NC(=O)[C@@H]1CCCN1C(=O)C(C)(C)N)C(=O)N[C@@H](CO)C(=O)N[C@@H](CCCNC(=N)N)C(=O)NCC(=O)N[C@H](C(=O)N[C@@H](Cc1ccccc1)C(N)=O)[C@@H](C)O [compound 22] (H-[Aib]PASRGTF-NH2),half-life at 1 mg/ml,[1],3480 min
C[C@@H](O)[C@H](NC(=O)CNC(=O)[C@H](CCCNC(=N)N)NC(=O)[C@H](CO)NC(=O)[C@H](Cc1c[nH]cn1)N(C)C(=O)[C@@H]1CCCN1C(=O)C(C)(C)N)C(=O)N[C@@H](Cc1ccccc1)C(N)=O [compound 23] (H-[Aib]P[NMeH]SRGTF-NH2),half-life at 1 mg/ml,[1],1800 min
SVSEIQLMHNLGKHLNSMERVEWLRKKLQDVHK(γE-COC16H32CO2H)-OH [SEQ ID NO: 74],effect on serum calcium levels,serum calcium,increase serum calcium levels
